How the values were obtained:
Format in all cases: cell-based
COR-L105 = test: CellTiter-Glo proliferation assay, COR-L105; settings: Homo sapiens, COR-L105, 120 h, COR-L105, 5 days; for Emax: read-out: COR-L105 Span (max)
Protocol: (§1) The BCL-xL degrader compounds were tested against two endogenous cancer cell lines: • COR-L105: ECACC No. 92031918 cultured in RPMI-1640+10% FBS • NCI-H1650: (ATCC No. CRL-5883 cultured in RPMI-1640+10% FBS
(§2) The ability of the BCL-xL degrader low molecular weight compounds to inhibit cell proliferation and survival was assessed using the Promega CellTiter-Glo® proliferation assay.
(§3) Cell lines were cultured in media that is optimal for their growth at 5% CO2, 37° C. in a tissue culture incubator. Prior to seeding for the proliferation assay, the cells were split at least 2 days before the assay to ensure optimal growth density. On the day of seeding, adherent cells were lifted off tissue culture flasks using 0.25% trypsin. Cell viability and cell density were determined using a cell counter (Vi-Cell XR Cell Viability Analyzer, Beckman Coulter). Cells with higher than 85% viability were seeded for the assay.
(§4) The COR-105 cell line was seeded in white, clear bottom 384-well TC treated plates (Corning cat. #3765). Cells were seeded at a density of 1,000 cells per well in 45 μL of standard growth media. Plates were incubated at 5% CO2, 37° C. overnight in a tissue culture incubator. The NCI-H1650 cell line was seeded in black, clear round bottom 384-well ultra-low attachment spheroid microplates (Corning cat. #3830). Cells were seeded at a density of 3,000 cells per well in 45 uL of standard growth media. Plates were spun in a centrifuge for 5 minutes and 1,000 RPM. Plates were incubated at 5% CO2, 37° C. for 72 hours in a tissue culture incubator.
(§5) On the day of dosing, BCL-xL degrader low molecular weight compounds were prepared at 1 OX in standard growth media. The prepared drug treatments were then added to the cells resulting in final concentrations of 0.508 nM-10 μM and a final volume of 50 μL per well. Each drug concentration was tested in quadruplets. Plates were incubated at 5% CO2, 37° C. for 5 days in a tissue culture incubator.
(§6) For COR-L105 plates, cell viability was assessed through the addition of 25 μL of CellTiter Glo® (Promega, cat #G7573), a reagent which lyses cells and measures total adenosine triphosphate (ATP) content. Plates were incubated at room temperature for 10 minutes to stabilize luminescent signals prior to reading with a luminescence reader (EnVision Multilabel Plate Reader, PerkinElmer). For NCI-H1650 plates, cell viability was assessed through the addition of 40 μL of CellTiter Glo® 3D Cell Viability Assay substrate (Promega, cat #G9681), a reagent which lyses cells and measures total adenosine triphosphate (ATP) content. Wells were mixed thoroughly and plates were incubated at room temperature for 30 minutes to stabilize luminescent signals prior to reading using a luminescence reader (EnVision Multilabel Plate Reader, PerkinElmer).
(§7) To evaluate the effect of the drug treatments, luminescent counts from wells containing untreated cells (100% viability) were used to normalize treated samples. A variable slope model was applied to fit a nonlinear regression curve to the data in GraphPad PRISM version 7.02 software. IC50 and Amax values were extrapolated from the resultant curves. The concentrations of treatment required to inhibit 50% of cell growth or survival (IC50) were calculated with representative IC50 values of the cell lines tested summarized in Table 11.

NCI-H1650 = test: CellTiter-Glo 3D proliferation assay, NCI-H1650 spheroids; settings: Homo sapiens, NCI-H1650, 120 h, 5 days; for Emax: read-out: NCI-H1650 Span (Amax)
Protocol: as §1, §2, §3, §4, §5, §6, §7

MOLT-4 cells = test: MOLT-4 cell viability, MTT assay; settings: Homo sapiens, MOLT-4, 48 h
From the text: The MTT colorimetric assay is based on the mitochondrial reduction of tetrazolium salt by living cells. The viable cell number is proportional to the production of formazan salts, which can be read spectrophotometrically at 540 nm. The CTG luminescent assay (CellTiter GLO, Promega) is based on a reagent which lyses cells and measures total adenosine triphosphate (ATP) content. The viable cell number is proportional to the production of ATP.
MOLT-4 cells were purchased from ATCC and cultivated in RPMI 1640 supplemented with 10% heat inactivated fetal bovine serum, penicillin (100 IU/mi), streptomycin (100 μg/ml) and L-glutamine (2 mM). Cells were cultured at 37° C. in a humidified atmosphere containing 5% […].
For MTT assay, cells were seeded in 96 microwell plates (150 μL per well) and exposed to the compounds for 48 h (3.16 fold serially diluted; 9 concentrations each, triplicates). At the end of incubation time, 15 μL of MTT solution (5 mg/ml) were added per well and the cells were incubated for another 4 h. Then, 100 μL of 10% Sodium Dodecyl Sulfate (SDS)/HCl 10 mM were added per well and the plate was incubated overnight, before measurement of optical density at 540 nm.
IC50, were calculated using standard four-parametric curve fitting. IC50 is defined as the compound concentration at which the MTT or CTG signal is reduced to 50% of that measured for the control. Results shown in Table 14 represent the mean of at least 2 independent experiments.

[1] = tested on: EBC-1 lung cancer cell line; test: EBC-1 cell proliferation, CellTiter-Glo assay; settings: Homo sapiens, 120 h; Ebc-1 cell viability, CTG assay, 5 days of treatment; read-out: CTG 5 day Ebc1 GI50
Procedure, shortened: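 EBC-1 cells seeded at 1000 per well overnight, then exposed to 10-point dilutions (0.508 nM–10 μM final) for 5 days at 37 °C, in triplicate. ATP luminescence by CellTiter-Glo, normalised to untreated wells; GI50 from four-parameter logistic fit, runs valid only with at least one doubling.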

HiBiT-tagged BCL-xL = target: T1, HiBiT-tagged BCL-xL (Homo sapiens, UniProt Q07817); test: NCI-H1650 BCL-xL protein levels, Nano-Glo HiBiT Lytic Detection; settings: NCI-H1650 expressing HiBiT-tagged BCL-xL, overnight incubation, read-out: Bcl-xl HIBIT NCIH1650 DC50
T1 construct: expressed in transfected cells; host or cells: NCI-H1650 (ATCC No. CRL-5883), engineered HiBiT cell line
Procedure, shortened: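 NCI-H1650 cells expressing HiBiT-tagged BCL-xL (5000/well) were treated overnight at 37° C with 10 concentrations, final 0.508 nM-10 μM, in triplicate. Remaining BCL-xL measured by Nano-Glo HiBiT lytic luminescence, normalized to untreated cells; 50% values by four-parameter logistic fit.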

T1 sequence (Q07817 whole entry): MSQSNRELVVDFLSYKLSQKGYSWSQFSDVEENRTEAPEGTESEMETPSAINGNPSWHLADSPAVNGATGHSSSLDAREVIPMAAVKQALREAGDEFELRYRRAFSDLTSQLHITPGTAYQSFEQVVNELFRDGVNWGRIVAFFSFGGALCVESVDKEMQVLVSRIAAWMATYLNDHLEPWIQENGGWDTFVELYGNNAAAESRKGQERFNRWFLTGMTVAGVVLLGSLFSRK

Cc1ncsc1-c1ccc(CNC(=O)[C@@H]2C[C@@H](O)CN2C(=O)[C@@H](NC(=O)C2(F)CC2)C(C)(C)C)c(OCCCCCCCCCCCCN2CCN(CC#Cc3ccc(OCCCc4sc(N5CCCc6c5nnc(Nc5nc7ccccc7s5)c6C)nc4C(=O)O)c(F)c3)CC2)c1 [Example 55, 2-(3-(benzo[d]thiazol-2-ylamino)-4-methyl-6,7-dihydropyrido [2,3-c]pyridazin-8(5H)-yl)-5-(3-(2-fluoro-4-(3-(4-(12-(2-(((2S,4R)-1-((S)-2-(1-fluorocyclopropane-1-carboxamido)-3,3-dimethylbutanoyl)-4-hydroxypyrrolidine-2-carboxamido)methyl)-5-(4-methylthiazol-5-yl)phenoxy)dodecyl)piperazin-1-yl)prop-1-yn-1-yl)phenoxy)propyl)thiazole-4-carboxylic acid]
IC50 (COR-L105): 1160 nM
Emax (COR-L105): 81%
IC50 (NCI-H1650): 302 nM
Emax (NCI-H1650): 78.8%

Cc1cc(N(CCCCNC(=O)CCOCCOCCOCCOCCNc2cccc3c2C(=O)N(C2CCC(=O)NC2=O)C3=O)c2nc(C(=O)O)c(CCCOc3ccc(C#CCN(C)C)cc3F)s2)nnc1Nc1nc2ccccc2s1 (centres unmarked) [Example 149, 2-[[6-(1,3-benzothiazol-2-ylamino)-5-methyl-pyridazin-3-yl]-[4-[3-[2-[2-[2-[2-[[2-(2,6-dioxo-3-piperidyl)-1,3-dioxo-isoindolin-4-yl]amino]ethoxy]ethoxy]ethoxy]ethoxy]propanoylamino]butyl]amino]-5-[3-[4-[3-(dimethylamino)prop-1-ynyl]-2-fluoro-phenoxy]propyl]thiazole-4-carboxylic acid]
IC50 (MOLT-4 cells): 358 nM

Cc1ncsc1-c1ccc(CNC(=O)[C@@H]2C[C@@H](O)CN2C(=O)[C@@H](NC(=O)C2(F)CC2)C(C)(C)C)c(OCCCCCCCCCN2CCN(CC#Cc3ccc(OCCCc4sc(N5CCCc6c5nnc(Nc5nc7ccccc7s5)c6C)nc4C(=O)O)c(F)c3)CC2)c1 [Example 57, 2-(3-(benzo[d]thiazol-2-ylamino)-4-methyl-6,7-dihydropyrido [2,3-c]pyridazin-8(5H)-yl)-5-(3-(2-fluoro-4-(3-(4-(9-(2-(((2S,4R)-1-((S)-2-(1-fluorocyclopropane-1-carboxamido)-3,3-dimethylbutanoyl)-4-hydroxypyrrolidine-2-carboxamido)methyl)-5-(4-methylthiazol-5-yl)phenoxy)nonyl)piperazin-1-yl)prop-1-yn-1-yl)phenoxy)propyl)thiazole-4-carboxylic acid]
IC50 (COR-L105): 3630 nM
Emax (COR-L105): 72.5%
IC50 (NCI-H1650): 258 nM
Emax (NCI-H1650): 126%
GI50 [1]: 5 nM
DC50 (HiBiT-tagged BCL-xL): 18 nM

Cc1ncsc1-c1ccc(CNC(=O)[C@@H]2C[C@@H](O)CN2C(=O)[C@@H](NC(=O)C2(F)CC2)C(C)(C)C)c(OCc2ccc(CN3CCN(CC#Cc4ccc(OCCCc5sc(N6CCCc7c6nnc(Nc6nc8ccccc8s6)c7C)nc5C(=O)O)c(F)c4)CC3)cc2)c1 [Example 58, 2-(3-(benzo[d]thiazol-2-ylamino)-4-methyl-6,7-dihydropyrido [2,3-c]pyridazin-8(5H)-yl)-5-(3-(2-fluoro-4-(3-(4-(4-((2-(((2S,4R)-1-((S)-2-(1-fluorocyclopropane-1-carboxamido)-3,3-dimethylbutanoyl)-4-hydroxypyrrolidine-2-carboxamido)methyl)-5-(4-methylthiazol-5-yl)phenoxy)methyl)benzyl)piperazin-1-yl)prop-1-yn-1-yl)phenoxy)propyl)thiazole-4-carboxylic acid]
IC50 (COR-L105): 481 nM
Emax (COR-L105): 85.5%
IC50 (NCI-H1650): 188 nM
Emax (NCI-H1650): 98.2%

Cc1ncsc1-c1ccc(CNC(=O)[C@@H]2C[C@@H](O)CN2C(=O)[C@@H](NC(=O)C2(F)CC2)C(C)(C)C)c(OCCN(C)CC(=O)N2CCN(CC#Cc3ccc(OCCCc4sc(N5CCCc6c5nnc(Nc5nc7ccccc7s5)c6C)nc4C(=O)O)c(F)c3)CC2)c1 [Example 59, 2-(3-(benzo[d]thiazol-2-ylamino)-4-methyl-6,7-dihydropyrido [2,3-c]pyridazin-8(5H)-yl)-5-(3-(2-fluoro-4-(3-(4-(N-(2-(2-(((2S,4R)-1-((S)-2-(1-fluorocyclopropane-1-carboxamido)-3,3-dimethylbutanoyl)-4-hydroxypyrrolidine-2-carboxamido)methyl)-5-(4-methylthiazol-5-yl)phenoxy)ethyl)-N-methylglycyl)piperazin-1-yl)prop-1-yn-1-yl)phenoxy)propyl)thiazole-4-carboxylic acid]
IC50 (COR-L105): 2430 nM
Emax (COR-L105): 105%
IC50 (NCI-H1650): 119 nM
Emax (NCI-H1650): 77.9%

Cc1ncsc1-c1ccc(CNC(=O)[C@@H]2C[C@@H](O)CN2C(=O)[C@@H](NC(=O)C2(F)CC2)C(C)(C)C)c(OCCCCCCCCN2CCN(CC#Cc3ccc(OCCCc4sc(N5CCCc6c5nnc(Nc5nc7ccccc7s5)c6C)nc4C(=O)O)c(F)c3)CC2)c1 [Example 56, 2-(3-(benzo[d]thiazol-2-ylamino)-4-methyl-6,7-dihydropyrido [2,3-c]pyridazin-8(5H)-yl)-5-(3-(2-fluoro-4-(3-(4-(8-(2-(((2S,4R)-1-((S)-2-(1-fluorocyclopropane-1-carboxamido)-3,3-dimethylbutanoyl)-4-hydroxypyrrolidine-2-carboxamido)methyl)-5-(4-methylthiazol-5-yl)phenoxy)octyl)piperazin-1-yl)prop-1-yn-1-yl)phenoxy)propyl)thiazole-4-carboxylic acid]
IC50 (COR-L105): 473 nM
Emax (COR-L105): 82%
IC50 (NCI-H1650): 110 nM
Emax (NCI-H1650): 84.2%

Reference: US20240376094A2, “SELECTIVE BCL-XL PROTAC COMPOUNDS AND METHODS OF USE” (Les Laboratoires Servier, priority 2021, published 2024)
